Laboratory results: patent US10338078B2, “Method and apparatus for analyzing biomolecules using Raman spectroscopy” (Japan Science and Technology Agency, priority 2012, dated 2019)

Assays:
[1] = target: cathepsin B (Homo sapiens, UniProt P07858); assay: inhibition of cathepsin B enzyme activity; assay type: biochemical; settings: read-out: activity to inhibit cathepsin B, IC50
Source text: Persons skilled in the art can appropriately select the position to introduce the Raman label as well as the type of Raman label to introduce by considering the structure of the compound. Moreover, persons skilled in the art having general techniques in the field of organic synthesis can appropriately synthesize a Raman-labeled compound as the low-molecular-weight compound according to the present invention. This is explained with a specific example as follows. Persons skilled in the art can synthesize an AOMK derivative (hereinafter, also referred to as RAT8-AOMK) by Raman-labeling acyloxymethyl ketone (AOMK) (an inhibitor of cathepsin B) with alkyne using general techniques in the field of organic synthesis. The RAT8-AOMK binds to cathepsin B, so as to inhibit its enzyme activity. The activity of RAT8-AOMK to inhibit cathepsin B is represented by IC50=0.3 μM. RAT8-AOMK can be synthesized and obtained by reacting N-Boc-AOMK (IC50=0.05 μM) with 4-nitrophenyl-4-ethynylbenzyl carbonate. Acyloxymethyl ketone (AOMK) is known as a cysteine protease inhibitor. The principle thereof is that a cysteine residue of the active center of an enzyme protein is modified by AOMK, and thus activity as protease is diminished (see FIG. 24).

[2] = tested on: target protein; settings: cited from earlier work

| IC50 [1] [µM] | Molecule | activity when modified with a fluorophore [2] |
| --- | --- | --- |
| 0.3 | C#Cc1ccc(COC(=O)N[C@@H](Cc2ccccc2)C(=O)NCC(=O)COC(=O)c2c(C)cccc2C)cc1 [RAT8-AOMK] | – |
| – | 16F16 | loses its activity |
